Reference: patent US7943606B2, “Compositions and methods to control abnormal cell growth” (CanCure Laboratories, LLC, priority 2005, dated 2011)

Test system: MRC-5 cells
Assay: Viability of MRC-5 normal lung fibroblasts (MTT assay)
Type: cell-based
Conditions: Homo sapiens, MRC5; 10,000 cells per well (25-35% confluent), 72 hours, MTT; read-out: IC50 values, Antiproliferative, MRC-5
Method: To quantify cell death, around the time when significant and characteristic morphological changes took place, cells were pulse-labeled for 10 minutes with [^3H]thymidine to measure DNA activity as described elsewhere [Tomono, M. and Kiss, Z. (1995), “Ethanol enhances the stimulatory effects of insulin and insulin-like growth factor-I on DNA synthesis in NIH 3T3 fibroblasts,” Biochem. Biophys. Res. Commun. 208, 63-67]. Also, cells were collected as suspensions using trypsin, an established method in cell biology, followed by re-plating of cells in fresh tissue culture medium. If no viable cells were obtained after one week in culture, it meant that the cells at the time of re-plating were dead. Survival values obtained with untreated cells were considered 100%. For the determination of relative number of viable cells after treatments, in most cases the MTT assay was used. This calorimetric assay is based on the ability of living cells, but not dead cells, to reduce 3-(4,5-dimethyl thiazol-2-yl)-2,5-diphenyltetrazolium bromide [Carmichael, J, De Graff, W. G., Gazdar, A. F., Minna, J. D. and Mitchell, J. B. (1987), “Evaluation of tetrazolium-based semi-automated calorimetric assay: Assessment of chemosensitivity testing,” Cancer Res. 47, 936-942]. For this assay, cells were plated in 96-well plates, and the MTT assay was performed both in untreated and treated cell cultures. The MTT assay also was performed at the start of treatments to allow assessment of proliferation rates in the control and treated cell cultures.
The MRC-5 cell line is derived from normal lung tissue of a […] fetus. MRC-5 cells were maintained and treated in Eagles Medium with Hanks' BSS containing 10% fetal bovine serum. The T47D cells were maintained and treated in RPMI 1640 medium supplemented with 0.2 IU bovine insulin and 10% fetal bovine serum. The CaOV-3 human ovarian cancer cells were cultured in Dulbecco's modified Eagle's medium containing 10% fetal bovine serum. The cells were seeded in 96-well plates either at 10,000 cells per well or 30,000 cells per well to examine the antiproliferative and cytotoxic effects of various CC compounds, respectively. The cells were incubated for 24 hours, then the medium was changed followed by the treatments of cultures 2 hours after the medium change. At this point, cell cultures seeded at 10,000 cells per well and 30,000 cells per well were 25-35% and 80-90% confluent, respectively. Incubations were continued for 72 hours followed by the MTT assay. The data, shown in TABLE 2, indicate the inhibitory concentrations of CC compounds (IC50) required for 50% decrease in the number of viable cells. These numbers are calculated from the mean of 4 incubations in one experiment (the experiment was repeated once with similar results).

SMILES: CC[N+](C)(CC)CCOCc1ccc2sc3ccccc3c(=O)c2c1.[I-] [CCDTHT, N,N-diethyl-N-methyl-2-[(9-oxo-9H-thioxanthen-2-yl)methoxy]-ethanaminium iodide]
- IC50: 90 µM
